According to patent US20050288280A1, “Meloxicam in veterinary medicine” (Boehringer Ingelheim Vetmedica GmbH, priority 2004, published 2005):

Key:
[1] = tested on: dairy cows with clinical mild or moderate mastitis; test: Clinical field study: response thresholds to mechanical stimuli (hypersensitivity) in dairy cows with clinical mastitis; type: in vivo; settings: adjunct to intramammary cefquinome, hind limbs, 6-8 examinations over 45 days, meloxicam groups vs antibiotics alone P<0.001
Method: Therefore, as already mentioned, dairy cows were studied to assess pain associated with moderate or mild mastitis. Based on the abovementioned study directed to the newly established method for the measurement of pain in food producing animals, a clinical field study was used to investigate, besides painful chronic conditions in cows with mild and moderate mastitis, the analgesic efficacy and long duration of action of meloxicam. In such clinical field study, meloxicam was administered only once as adjunct to intramammary antibiotic therapy and was compared to a second group where animals received re-treatments with meloxicam after 3 and 6 days. A third group received the antibiotic stand alone therapy. The distance between the hocks was measured as a proxy indicator of altered cow stance. Response thresholds to mechanical stimuli were measured on each hind limb using a modification of the method described by Nolan and others (A. Nolan, A. Livingston, R. Morris, and A. Waterman, Techniques for comparison of thermal and mechanical nociceptive stimuli in the sheep, J. Pharmacol. Methods 1987, 17, pp. 39-49). […] Response thresholds to mechanical stimuli were measured on each hind limb. […]

dairy cows = settings: administered intramammarily in dairy cows; cited from earlier work

SMILES: CO/N=C(\C(=O)N[C@@H]1C(=O)N2C(C(=O)[O-])=C(C[n+]3cccc4c3CCCC4)CS[C@H]12)c1csc(N)n1 [antibiotics, cefquinome]
- threshold responses to mechanical stimuli (mechanical hyperalgesia) [1]: greater differences

SMILES: Cc1c(Nc2ncccc2C(=O)O)cccc1C(F)(F)F [flunixin meglumine]
- long lasting analgesic activity (dairy cows): did not achieve a long lasting analgesic activity
